Test results: US9896441B2 (Lycera Corporation, priority 2014, dated 2018)

Legend:
[1] = biological target: T1, RORγ-LBD (Homo sapiens, UniProt P51449); experiment: RORγ-Ligand Binding Domain (LBD) TR-FRET Assay; type: biochemical; details: RORγ-LBD TR-FRET assay; for TR-FRET Assay Max Response: maximum response;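 on TR-FRET Assay Max Response: 665/615 nm signal ratio set to 100 without ursolic acid or test compound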
T1 construct: made in house; host or cells: SF9 cells (baculovirus); used as diluted lysate
T1 sequence (P51449 269-508 limits assumed): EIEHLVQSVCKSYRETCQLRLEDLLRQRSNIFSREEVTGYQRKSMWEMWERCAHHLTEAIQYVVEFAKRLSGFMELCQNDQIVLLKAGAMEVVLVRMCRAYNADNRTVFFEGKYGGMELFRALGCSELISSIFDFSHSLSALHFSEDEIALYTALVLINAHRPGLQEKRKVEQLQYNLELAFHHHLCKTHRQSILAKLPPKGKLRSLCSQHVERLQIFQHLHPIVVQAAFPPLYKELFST
In short: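 SF9 lysate containing His-RORγ-LBD, ~3 nM final; coactivator peptide biotin-SRC1 LXXLL, 200 nM final; ursolic acid 2 μM final; DMSO 1% final; Tris pH 7.0 buffer with KCl, EDTA, DTT, BSA. TR-FRET format.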

[2] = biological target: T2, Gal4-RORγ-LBD (Homo sapiens, UniProt P51449); experiment: Gal4-RORγ Luciferase Reporter Assay in HEK-293T Cells; type: cell-based; details: HEK-293 cells, luciferase reporter, in presence of ursolic acid; for Gal4-RORγ Assay Max Response: maximum response
T2 construct: expressed in transfected cells
T2 sequence (P51449 269-508 limits assumed): T1 sequence (P51449 269-508 limits assumed)
In short: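 HEK-293 cells were co-transfected with Gal4-RORγ-LBD and a Gal4-luciferase reporter, then exposed overnight at 37 °C to compounds with […] ursolic acid present (0.2% DMSO). Luminescence was read with One-Glo after 10 min at RT, untreated signal was set as 100, and Max Response was taken as the upper plateau of a 4-parameter logistic fit.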

Compound | EC50 [1] [nM] | EC50 [2] [nM] | TR-FRET Assay Max Response [1] | Gal4-RORγ Assay Max Response [2]
CCn1cc(S(=O)(=O)N2C[C@H](CNC(C)=O)Oc3ccc(/C=C/c4ncccc4Cl)cc32)c(Cl)n1 [Example 109E, (S,E)-N-((4-((3-chloro-1-ethyl-1H-pyrazol-4-yl)sulfonyl)-6-(2-(3-chloropyridin-2-yl)vinyl)-3,4-dihydro-2H-benzo[b][1,4]-oxazin-2-yl)methyl)acetamide] | < 500 | 500 to 5000 | **** (a value greater than 200) | ** (a value in the range of greater than 90 to 150)
CCOc1ncc(C(F)(F)F)cc1S(=O)(=O)N1C[C@H](CNC(=O)CCC(=O)O)Oc2ccc(/C=C/c3c(F)cccc3Cl)cc21 [Example 109F, (S,E)-4-(((6-(2-chloro-6-fluorostyryl)-4-((2-ethoxy-5-(trifluoro-methyl)pyridin-3-yl)sulfonyl)-3,4-dihydro-2H-benzo[b][1,4]oxazin-2-yl)methyl)amino)-4-oxobutanoic acid] | < 500 | 500 to 5000 | *** (a value in the range of greater than 150 to 200) | ** (a value in the range of greater than 90 to 150)
C/C(=C\c1ccc2c(c1)N(S(=O)(=O)c1cccc(C(F)(F)F)c1)C[C@H](CCNC(=O)OC(C)(C)C)O2)c1c(F)cccc1Cl [Example 110, tert-Butyl (S,E)-(2-(6-(2-(2-chloro-6-fluorophenyl)prop-1-en-1-yl)-4-((3-(trifluoromethyl)phenyl)sulfonyl)-3,4-dihydro-2H-benzo[b][1,4]oxazin-2-yl)ethyl)carbamate] | < 500 | 500 to 5000 | *** (a value in the range of greater than 150 to 200) | ** (a value in the range of greater than 90 to 150)
C/C(=C\c1ccc2c(c1)N(S(=O)(=O)c1cccc(C(F)(F)F)c1)C[C@H](CCN)O2)c1c(F)cccc1Cl [Example 111, (S,E)-2-(6-(2-(2-Chloro-6-fluorophenyl)prop-1-en-1-yl)-4-((3-(trifluoromethyl)phenyl)sulfonyl)-3,4-dihydro-2H-benzo[b][1,4]oxazin-2-yl)ethan-1-amine] | < 500 | 500 to 5000 | *** (a value in the range of greater than 150 to 200) | ** (a value in the range of greater than 90 to 150)
CC(=O)NCC[C@H]1CN(S(=O)(=O)c2cccc(C(F)(F)F)c2)c2cc(/C=C(\C)c3c(F)cccc3Cl)ccc2O1 [Example 112, (S,E)-N-(2-(6-(2-(2-Chloro-6-fluorophenyl)prop-1-en-1-yl)-4-((3-(trifluoromethyl)phenyl)sulfonyl)-3,4-dihydro-2H-benzo[b][1,4]oxazin-2-yl)ethyl)acetamide] | < 500 | < 500 | *** (a value in the range of greater than 150 to 200) | ** (a value in the range of greater than 90 to 150)
C/C(=C\c1ccc2c(c1)N(S(=O)(=O)c1cccc(C(F)(F)F)c1)C[C@H](CCNC(=O)C1CC1)O2)c1c(F)cccc1Cl [Example 113, (S,E)-N-(2-(6-(2-(2-Chloro-6-fluorophenyl)prop-1-en-1-yl)-4-((3-(trifluoromethyl)phenyl)sulfonyl)-3,4-dihydro-2H-benzo[b][1,4]oxazin-2-yl)ethyl)cyclopropanecarboxamide] | < 500 | < 500 | *** (a value in the range of greater than 150 to 200) | ** (a value in the range of greater than 90 to 150)
C/C(=C\c1ccc2c(c1)N(S(=O)(=O)c1cccc(C(F)(F)F)c1)C[C@H](CCNS(C)(=O)=O)O2)c1c(F)cccc1Cl [Example 114, (S,E)-N-(2-(6-(2-(2-Chloro-6-fluorophenyl)prop-1-en-1-yl)-4-((3-(trifluoromethyl)phenyl)sulfonyl)-3,4-dihydro-2H-benzo[b][1,4]oxazin-2-yl)ethyl)methanesulfonamide] | < 500 | < 500 | *** (a value in the range of greater than 150 to 200) | ** (a value in the range of greater than 90 to 150)
C/C(=C\c1ccc2c(c1)N(S(=O)(=O)c1cccc(C(F)(F)F)c1)C[C@H](CCNC(=O)C(C)(C)O)O2)c1c(F)cccc1Cl [Example 115, (S,E)-N-(2-(6-(2-(2-Chloro-6-fluorophenyl)prop-1-en-1-yl)-4-((3-(trifluoromethyl)phenyl)sulfonyl)-3,4-dihydro-2H-benzo[b][1,4]oxazin-2-yl)ethyl)-2-hydroxy-2-methylpropanamide] | < 500 | < 500 | *** (a value in the range of greater than 150 to 200) | * (a value in the range of 30 to 90)

Second part, led by results:

EC50 [1] [nM] | EC50 [2] [nM] | Compound | TR-FRET Assay Max Response [1] | Gal4-RORγ Assay Max Response [2]
< 500 | < 500 | C/C(=C\c1ccc2c(c1)N(S(=O)(=O)c1cccc(C(F)(F)F)c1)C[C@H](CCNS(=O)(=O)C1CC1)O2)c1c(F)cccc1Cl [Example 116A, (S,E)-N-(2-(6-(2-(2-chloro-6-fluorophenyl)prop-1-en-1-yl)-4-((3-(trifluoro-methyl)phenyl)-sulfonyl)-3,4-dihydro-2H-benzo[b][1,4]oxazin-2-yl)ethyl)cyclopropane-sulfonamide] | *** (a value in the range of greater than 150 to 200) | ** (a value in the range of greater than 90 to 150)
< 500 | < 500 | COc1cc(S(=O)(=O)N2C[C@H](CCNC(C)=O)Oc3ccc(/C=C(\C)c4c(F)cccc4Cl)cc32)ccc1F [Example 116B, (S,E)-N-(2-(6-(2-(2-chloro-6-fluorophenyl)prop-1-en-1-yl)-4-((4-fluoro-3-methoxyphenyl)-sulfonyl)-3,4-dihydro-2H-benzo[b][1,4]oxazin-2-yl)ethyl)acetamide] | *** (a value in the range of greater than 150 to 200) | * (a value in the range of 30 to 90)
< 500 | 500 to 5000 | CCOC(=O)C(=O)NCC[C@H]1CN(S(=O)(=O)c2ccc(F)c(OC)c2)c2cc(/C=C(\C)c3c(F)cccc3Cl)ccc2O1 [Example 116C, ethyl (S,E)-2-((2-(6-(2-(2-chloro-6-fluorophenyl)prop-1-en-1-yl)-4-((4-fluoro-3-methoxyphenyl)sulfonyl)-3,4-dihydro-2H-benzo[b][1,4]oxazin-2-yl)ethyl)amino)-2-oxoacetate] | *** (a value in the range of greater than 150 to 200) | ** (a value in the range of greater than 90 to 150)
< 500 | < 500 | COc1cc(S(=O)(=O)N2C[C@H](CCNC(=O)[C@H](C)O)Oc3ccc(/C=C(\C)c4c(F)cccc4Cl)cc32)ccc1F [Example 116D, (S)-N-(2-((S)-6-((E)-2-(2-chloro-6-fluorophenyl)prop-1-en-1-yl)-4-((4-fluoro-3-methoxyphenyl)sulfonyl)-3,4-dihydro-2H-benzo[b][1,4]oxazin-2-yl)ethyl)-2-hydroxypropanamide] | *** (a value in the range of greater than 150 to 200) | ** (a value in the range of greater than 90 to 150)
< 500 | < 500 | CCn1cc(S(=O)(=O)N2C[C@H](CCNC(C)=O)Oc3ccc(/C=C(\C)c4c(F)cccc4Cl)cc32)c(Cl)n1 [Example 116E, (S,E)-N-(2-(4-((3-chloro-1-ethyl-1H-pyrazol-4-yl)sulfonyl)-6-(2-(2-chloro-6-fluorophenyl)-prop-1-en-1-yl)-3,4-dihydro-2H-benzo[b][1,4]oxazin-2-yl)ethyl)acetamide] | *** (a value in the range of greater than 150 to 200) | ** (a value in the range of greater than 90 to 150)
< 500 | 500 to 5000 | C/C(=C\c1ccc2c(c1)N(S(=O)(=O)c1cccc(C(F)(F)F)c1)C[C@H](NC(=O)C(C)(C)O)C2)c1c(F)cccc1Cl [Example 116F, (R,E)-N-(7-(2-(2-chloro-6-fluorophenyl)prop-1-en-1-yl)-1-((3-(trifluoromethyl)-phenyl)sulfonyl)-1,2,3,4-tetrahydroquinolin-3-yl)-2-hydroxy-2-methylpropanamide] | *** (a value in the range of greater than 150 to 200) | * (a value in the range of 30 to 90)
< 500 | < 500 | C/C(=C\c1ccc2c(c1)N(S(=O)(=O)c1cccc(C(F)(F)F)c1)C[C@@H](NC(=O)C(C)(C)O)C2)c1c(F)cccc1Cl [Example 116G, (S,E)-N-(7-(2-(2-chloro-6-fluorophenyl)prop-1-en-1-yl)-1-((3-(trifluoromethyl)-phenyl)sulfonyl)-1,2,3,4-tetrahydroquinolin-3-yl)-2-hydroxy-2-methylpropanamide] | *** (a value in the range of greater than 150 to 200) | * (a value in the range of 30 to 90)
